{"source": "patent US20060188945A1", "about": "“Screening methods” (priority 2004, published 2006)", "key": {"full-length human GHR": {"molecular_target": "T1, full-length human GHR (Homo sapiens, UniProt P10912)", "T1 construct": "plasmid DNA encoding the full-length human GHR; expressed in transfected cells; host or cells: WRL-68 cells", "T1 sequence (P10912 19-638)": "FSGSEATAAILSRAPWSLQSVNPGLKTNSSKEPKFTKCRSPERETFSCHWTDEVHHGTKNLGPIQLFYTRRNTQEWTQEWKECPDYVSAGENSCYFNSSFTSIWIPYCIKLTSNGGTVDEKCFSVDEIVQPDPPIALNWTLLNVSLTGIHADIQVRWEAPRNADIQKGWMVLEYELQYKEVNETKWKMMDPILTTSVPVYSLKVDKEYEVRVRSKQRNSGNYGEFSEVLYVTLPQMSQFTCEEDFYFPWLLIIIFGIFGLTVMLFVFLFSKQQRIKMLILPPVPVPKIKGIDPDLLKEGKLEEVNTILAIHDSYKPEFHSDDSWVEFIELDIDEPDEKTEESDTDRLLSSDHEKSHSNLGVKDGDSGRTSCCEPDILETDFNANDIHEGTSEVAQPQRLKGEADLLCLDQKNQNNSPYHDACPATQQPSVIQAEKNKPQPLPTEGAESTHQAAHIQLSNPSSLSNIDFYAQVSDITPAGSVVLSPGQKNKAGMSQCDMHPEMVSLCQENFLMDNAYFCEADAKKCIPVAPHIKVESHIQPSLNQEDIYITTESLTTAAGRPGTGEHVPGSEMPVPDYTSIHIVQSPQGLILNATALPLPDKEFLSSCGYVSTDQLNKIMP", "assay": "Immunofluorescence of subcellular distribution and internalization of growth hormone receptor", "type": "cell-based", "details": "WRL-68 cells transfected with human GHR; immunofluorescence using Mab263; 10-100 nM GH or 2 μM BVT.3693", "quoted_text": "WRL-68 cells were cultured in EMEM medium with NaHCO3 (Statens Veterinärmedicinska Anstalt, Uppsala, Sweden), supplemented with 10% fetal bovine serum (FBS), 2% L-Glutamine, 1% Pyruvate, and non-essential acids (NEA), all from GIBCO, at 37° C. in 5% CO2.\nTransfection: Cells were transfected with plasmid DNA encoding the full-length human GHR (pMB 1288, 2 μg/μl) using DOTAP Liposomal Transfection Reagent (Roche), according to the manufacturers instructions. WRL-68 cells in T75 flasks were transfected with 10 μg DNA for each flask. 5 μl (10 μg) DNA was diluted with 250 μl OPTIMEM1 medium (GIBCO), and mixed with 75 μl DOTAP reagent diluted in 175 μl OPTIMEM1 medium. The mixture was incubated for 10 minutes and then mixed with 10 ml OPTIMEM1 medium. Cells were washed once and then incubated for 4 hours with the DNA/DOTAP transfection mix. The transfection reagents were removed and fresh culture medium was added. Cells were re-seeded into new culture dishes the following day.\nStimulation: 3×10^4 cells were seeded on chamber slides in eight-well dishes and grown for two days. […] After treatment, the cells were rinsed twice with ice-cold PBS. Fixation was performed with 4% paraformaldehyde for 20 minutes.\nStaining with rabbit antiserum: The chamber slides were washed twice by immersion of the slides in a container with 0.05% TBS-Tween. […]"}, "[1]": {"molecular_target": "T2, membrane bound GHR on a human osteosarcoma cell line (Homo sapiens, UniProt P10912)", "T2 construct": "endogenous in cells", "T2 sequence (P10912 19-638)": "T1 sequence (P10912 19-638)", "assay": "DELFIA assay for determination of receptor on cell surface", "type": "cell-based", "details": "stimulated for 1.5 hours with increasing concentrations, Eu-labeled anti GH-rec antibody BB117, FIG. 2", "method": "The following method was used to quantify the number of GH receptors on the cell surface after stimulation with different compounds.\nOn day 1, WRL-68 cells were seeded at a density of 15,000 cells per well and incubated under standard cell culture conditions.\nOn day 3, cells were washed with serum-free medium and incubated 1 hour prior to stimulation with a dose-response of BVT.3693. The cells were then washed with ice-cold PBS (Dulbecco PBS-A) and fixated with 4% paraformaldehyde on ice for 20 minutes. Thereafter the plates were washed with PBS and stored in a refrigerator until used. […]\nOn day 4, the plates were washed with PBS using a DELFIA plate washer. […] The amount of Europium fluorescence was determined by reading in a Victor analysis instrument.\nTo correlate the amount of Europium fluorescence measured (which fluorescence is proportional to the number of GH receptors present on the cell surface) to the number of cells attached to the bottom of the well after all the washing steps, we developed an internal standard. […] Instead, we developed a method to quantify the amount of DNA in the wells as an internal standard. […]\n10,000 cells per well were seeded the day before stimulation. […] Receptor quantification was performed using an Eu-labeled anti GH-rec antibody BB117, as described above (simplified protocol)."}}}
{"molecule": "Cc1ccc(S(N)(=O)=O)cc1NC(=O)c1ccc(Br)o1", "note": "[BVT.3693, N-[5-(aminosulfonyl)-2-methylphenyl]-5-bromo-2-furamide]", "values": [{"measurement": "subcellular distribution of GHR after stimulation", "setting": "full-length human GHR", "value": "intracellular staining, with both a nuclear localisation and a cytoplasmic localisation of the receptor"}, {"measurement": "amount of GHR on the surface of the cells", "setting": "[1]", "value": "dose dependent reduction"}]}
